Measurements taken from ChEMBL document CHEMBL3045770, “Design and synthesis of some thieno[2,3-c]pyridazine derivatives of expected anticancer activity” (2013).

What was measured:
Format in all cases: functional
NCI-H522 = assay: Cytotoxicity against Homo sapiens (human) NCI-H522 assessed as cell growth at 10 uM after 48 hr by SRB assay relative to control; conditions: NCI-H522, 48 h, read-out: Activity
Hs-578T = assay: Cytotoxicity against Homo sapiens (human) Hs 578T assessed as cell growth at 10 uM after 48 hr by SRB assay relative to control; conditions: read-out: Activity
T47D = assay: Cytotoxicity against Homo sapiens (human) T47D assessed as cell growth at 10 uM after 48 hr by SRB assay relative to control; conditions: read-out: Activity
HOP-62 = assay: Cytotoxicity against Homo sapiens (human) HOP62 assessed as cell growth at 10 uM after 48 hr by SRB assay relative to control; conditions: HOP-62, 48 h, read-out: Activity
M14 = assay: Cytotoxicity against Homo sapiens (human) M14 assessed as cell growth at 10 uM after 48 hr by SRB assay relative to control; conditions: M14, 48 h, read-out: Activity
RPMI-8226 = assay: Cytotoxicity against Homo sapiens (human) RPMI8226 assessed as cell growth at 10 uM after 48 hr by SRB assay relative to control; conditions: RPMI-8226, 48 h, read-out: Activity
HCT-116 = assay: Cytotoxicity against Homo sapiens (human) HCT116 assessed as cell growth at 10 uM after 48 hr by SRB assay relative to control; conditions: HCT-116, 48 h, read-out: Activity
SF-539 = assay: Cytotoxicity against Homo sapiens (human) SF539 assessed as cell growth at 10 uM after 48 hr by SRB assay relative to control; conditions: SF-539, 48 h, read-out: Activity
LOX IMVI = assay: Cytotoxicity against Homo sapiens (human) LOXIMVI assessed as cell growth at 10 uM after 48 hr by SRB assay relative to control; conditions: read-out: Activity
NCI-H23 = assay: Cytotoxicity against Homo sapiens (human) NCI-H23 assessed as cell growth at 10 uM after 48 hr by SRB assay relative to control; conditions: NCI-H23, 48 h, read-out: Activity
OVCAR-5 = assay: Cytotoxicity against Homo sapiens (human) OVCAR5 assessed as cell growth at 10 uM after 48 hr by SRB assay relative to control; conditions: OVCAR-5, 48 h, read-out: Activity
OVCAR-8 = assay: Cytotoxicity against Homo sapiens (human) OVCAR8 assessed as cell growth at 10 uM after 48 hr by SRB assay relative to control; conditions: OVCAR-8, 48 h, read-out: Activity
MDA-MB-435 = assay: Cytotoxicity against Homo sapiens (human) MDA-MB-435 assessed as cell growth at 10 uM after 48 hr by SRB assay relative to control; conditions: MDA-MB-435, 48 h, read-out: Activity
SR = assay: Cytotoxicity against Homo sapiens (human) SR assessed as cell growth at 10 uM after 48 hr by SRB assay relative to control; conditions: read-out: Activity
786-0 = assay: Cytotoxicity against Homo sapiens (human) 786-0 assessed as cell growth at 10 uM after 48 hr by SRB assay relative to control; conditions: 786-0, 48 h, read-out: Activity
CCRF-CEM = assay: Cytotoxicity against Homo sapiens (human) CCRF-CEM assessed as cell growth at 10 uM after 48 hr by SRB assay relative to control; conditions: read-out: Activity
UACC-257 = assay: Cytotoxicity against Homo sapiens (human) UACC257 assessed as cell growth at 10 uM after 48 hr by SRB assay relative to control; conditions: UACC-257, 48 h, read-out: Activity
CAKI-1 = assay: Cytotoxicity against Homo sapiens (human) Caki1 assessed as cell growth at 10 uM after 48 hr by SRB assay relative to control; conditions: CAKI-1, 48 h, read-out: Activity
SF-295 = assay: Cytotoxicity against Homo sapiens (human) SF295 assessed as cell growth at 10 uM after 48 hr by SRB assay relative to control; conditions: SF-295, 48 h, read-out: Activity
A549 = assay: Cytotoxicity against Homo sapiens (human) A549 assessed as cell growth at 10 uM after 48 hr by SRB assay relative to control; conditions: A549, 48 h, read-out: Activity
Malme-3M = assay: Cytotoxicity against Homo sapiens (human) MALME-3M assessed as cell growth at 10 uM after 48 hr by SRB assay relative to control; conditions: read-out: Activity
NCI-H322M = assay: Cytotoxicity against Homo sapiens (human) NCI-H322M assessed as cell growth at 10 uM after 48 hr by SRB assay relative to control; conditions: read-out: Activity
UO-31 = assay: Cytotoxicity against Homo sapiens (human) UO31 assessed as cell growth at 10 uM after 48 hr by SRB assay relative to control; conditions: UO-31, 48 h, read-out: Activity

CC1=NN(C(=O)c2sc3nnc(-c4ccccc4)c(-c4ccccc4)c3c2O)C(=O)C1
growth at 10 µM (NCI-H522): 87.4% | growth at 10 µM (Hs-578T): 89.6% | growth at 10 µM (T47D): 82.2% | growth at 10 µM (HOP-62): 82.8% | growth at 10 µM (M14): 87.4% | growth at 10 µM (RPMI-8226): 59.3% | growth at 10 µM (HCT-116): 89.8% | growth at 10 µM (SF-539): 109% | growth at 10 µM (LOX IMVI): 97.6% | growth at 10 µM (NCI-H23): 82.6% | growth at 10 µM (OVCAR-5): 117% | growth at 10 µM (OVCAR-8): 87% | growth at 10 µM (MDA-MB-435): 83.7% | growth at 10 µM (SR): 68.6% | growth at 10 µM (786-0): 65.9% | growth at 10 µM (CCRF-CEM): 49.5% | growth at 10 µM (UACC-257): 86.8% | growth at 10 µM (CAKI-1): 31% | growth at 10 µM (SF-295): 48.8% | growth at 10 µM (A549): 84.5%

CNc1nnc(-c2sc3nnc(-c4ccccc4)c(-c4ccccc4)c3c2O)s1
growth at 10 µM (NCI-H522): 111% | growth at 10 µM (Hs-578T): 109% | growth at 10 µM (T47D): 97.6% | growth at 10 µM (HOP-62): 115% | growth at 10 µM (M14): 107% | growth at 10 µM (RPMI-8226): 113% | growth at 10 µM (HCT-116): 102% | growth at 10 µM (SF-539): 109% | growth at 10 µM (Malme-3M): 111% | growth at 10 µM (LOX IMVI): 103% | growth at 10 µM (NCI-H23): 115% | growth at 10 µM (OVCAR-5): 96.5% | growth at 10 µM (NCI-H322M): 106% | growth at 10 µM (OVCAR-8): 104% | growth at 10 µM (MDA-MB-435): 103% | growth at 10 µM (SR): 78.2% | growth at 10 µM (786-0): 108% | growth at 10 µM (CCRF-CEM): 110% | growth at 10 µM (UACC-257): 94.5% | growth at 10 µM (CAKI-1): 72% | growth at 10 µM (SF-295): 91.7%

CC(=O)Oc1c(C2=NN(C(C)=O)C(c3ccc(F)cc3)O2)sc2nnc(-c3ccccc3)c(-c3ccccc3)c12 (stereo unspecified)
growth at 10 µM (NCI-H522): 80.4% | growth at 10 µM (Hs-578T): 120% | growth at 10 µM (T47D): 90% | growth at 10 µM (HOP-62): 121% | growth at 10 µM (M14): 102% | growth at 10 µM (RPMI-8226): 71.3% | growth at 10 µM (HCT-116): 80.5% | growth at 10 µM (UO-31): 83.3% | growth at 10 µM (SF-539): 104% | growth at 10 µM (LOX IMVI): 99% | growth at 10 µM (NCI-H23): 103% | growth at 10 µM (OVCAR-5): 95.3% | growth at 10 µM (NCI-H322M): 85.7% | growth at 10 µM (OVCAR-8): 101% | growth at 10 µM (MDA-MB-435): 79.6% | growth at 10 µM (SR): 79.3% | growth at 10 µM (786-0): 94.7% | growth at 10 µM (CCRF-CEM): 39.1% | growth at 10 µM (UACC-257): 113%

CC(=O)Oc1c(C2=NN(C(C)=O)C(c3ccccc3[N+](=O)[O-])O2)sc2nnc(-c3ccccc3)c(-c3ccccc3)c12 (stereo unspecified)
growth at 10 µM (NCI-H522): 92% | growth at 10 µM (Hs-578T): 114% | growth at 10 µM (T47D): 97.5% | growth at 10 µM (HOP-62): 109% | growth at 10 µM (M14): 91.8% | growth at 10 µM (RPMI-8226): 57.4% | growth at 10 µM (HCT-116): 76.8% | growth at 10 µM (UO-31): 78.9% | growth at 10 µM (SF-539): 107% | growth at 10 µM (Malme-3M): 93.2% | growth at 10 µM (LOX IMVI): 105% | growth at 10 µM (NCI-H23): 101% | growth at 10 µM (OVCAR-5): 95.1% | growth at 10 µM (OVCAR-8): 90.1% | growth at 10 µM (MDA-MB-435): 97.9% | growth at 10 µM (SR): 49% | growth at 10 µM (786-0): 102% | growth at 10 µM (CCRF-CEM): 19.6% | growth at 10 µM (UACC-257): 101% | growth at 10 µM (CAKI-1): 98% | growth at 10 µM (SF-295): 85% | growth at 10 µM (A549): 103%

CCOC(=O)c1c(Nc2ccc(S(N)(=O)=O)cc2)nnc(-c2ccccc2)c1-c1ccccc1
growth at 10 µM (NCI-H522): 111% | growth at 10 µM (Hs-578T): 116% | growth at 10 µM (T47D): 91.3% | growth at 10 µM (HOP-62): 108% | growth at 10 µM (M14): 104% | growth at 10 µM (RPMI-8226): 80.9% | growth at 10 µM (HCT-116): 93.3% | growth at 10 µM (SF-539): 108% | growth at 10 µM (LOX IMVI): 99.4% | growth at 10 µM (NCI-H23): 115% | growth at 10 µM (OVCAR-5): 116% | growth at 10 µM (OVCAR-8): 99.8% | growth at 10 µM (MDA-MB-435): 107% | growth at 10 µM (SR): 76.1% | growth at 10 µM (CCRF-CEM): 81.8% | growth at 10 µM (UACC-257): 101% | growth at 10 µM (CAKI-1): 83.8% | growth at 10 µM (SF-295): 88.5% | growth at 10 µM (A549): 90.9%
